We go through 2 compounds from PMC3160846 (PLoS ONE, 2011).

One series relates to IM9 cells. The experiment in a line: Clonogenic assay, IM9. It is filed as cell-based, Human. To be noted: Homo sapiens; IM9, lymphoma, p53 wild-type, MDR1 negative; read-out: IC50, anti-proliferative activity. The method, then:
(§1) Human lung adenocarcinoma A549 cells and NTUB1 bladder cancer cells were maintained in RPMI supplied with 10% fetal bovine serum. […] KB-derived MRP1-expressing cell line, KB-7D, was maintained in growth medium supplemented with 7 µM VP-16.
(§2) Two hundred cells in logarithmic growth phase were seeded in a 6-well plate. The cells were exposed to various concentrations of the test drugs for a three-generation period. At the end of the incubation period, cells were fixed and stained with 50% ethanol containing 0.5% methylene blue for 30 min. The plates were washed five times with water and allowed to air-dry. Colonies were countered manually. […] Each value represents the average of at least three independent experiments run in triplicates.

The test system of the next series is KB-VIN10 cells. The experiment in a line: Clonogenic assay, KB-VIN10. To be noted: for IC50: Homo sapiens, KB-VIN10, vincristine resistant, MDR1 ↑, read-out: IC50, anti-proliferative activity. The series is classed as cell-based, Human. As to the method: as §1, §2
Series [1] relates to KB cells. Briefly: Apoptosis assays (Annexin-V, caspase-3/-7 imaging, TUNEL), KB. The series is classed as cell-based, Human. The note with it: 48-72 h. As to the method:
Cells were cultured in chamber-slides, incubated with test agents for 48 h, and washed twice with PBS. Cells were labeled with Annexin-V-FLUOS reagent (catalog number #11858777001, Roche, Indianapolis, IN) for 30 min at room temperature. The cells were analyzed by fluorescence microscopy.
Caspase-3/-7 activity was analyzed with the MagicRed™ DEVD real-time caspase activity detection kit (catalog number #935, Immunochemistry Technologies LLC, Bloomington, MN). Briefly, cells were cultured in chamber-slides and incubated with test agents for various durations. Cells were then incubated with the Caspase-3/-7 substrate MR-(DEVD2) in culture medium for 1 hour, and then co-incubated with Hoechst 33342 for 15 min. Cells were viewed with a UV-enabled inverted-microscope at an excitation wavelength of 540 nm–560 nm and emission at 610 nm. Experiments were repeated independently at least two times.
Under in vitro conditions, cells were seeded and cultured in 8-well chamber-slides, and treated with various compounds. […] Cells were counterstained with DAPI to detect the nucleus, and examined by fluorescence microscopy. Amount of red fluorescence labeled (DNA fragmented) cells were counted and percentage of apoptotic cells were calculated as follows: Amount of the red fluorescence labeled cells ÷ Total cells available×100. […]

Series [2] has as its system human cervical carcinoma KB xenografts. The experiment in a line: KB xenograft in nude mice. The series is classed as in vivo. The note with it: for decrease in tumor volume: day 30, BPR1K653 15 mg/kg or VX680 30 mg/kg i.p. As to the method:
Under in vivo conditions, tumors were dissected from the euthanized mice and instantly stored under −80°C. Tumor tissue sections were prepared from the use of cryostats (Leica Microsystems, Buffalo Grove, IL), and subsequently fixed with ice-cold methanol. Tissue sections were stained by the TUNEL reagent using Fluorescent (green) In-Situ Apoptosis Detection Kit (catalog number #11684795910, Roche Diagnostic, Mannheim, Germany). Cells were counterstained with DAPI to detect nucleus, and examined by fluorescence microscopy. Amount of green fluorescence labeled (DNA fragmented) cells were counted and percentage of apoptotic cells were calculated as follows: Amount of green fluorescence labeled cells ÷ Total cells available×100. Experiments were repeated independently at least two times.
Male nude mice (5–6-weeks-old) were purchased from the National Laboratory Animal Centre (Taiwan R.O.C.). The animals were s.c. implanted with 5×10^5 KB cells or 1×10^6 KB-VIN10 cells mixed with equal volume of Matrigel (Becton Dickinson) in 0.1 mL at one flank per mouse via a 22-gauge needle. Tumor growth was examined twice a week after implantation, and the volume of tumor mass was measured with an electronic caliper and calculated as 1/2×length×width^2 in mm^3.
BPR1K653 was dissolved completely in a vehicle mixture of DMSO/cremophor/saline (1∶2∶7). Selected dose of BPR1K653 was decided base on the following conditions: 1/2 of the dosage that caused noticeable body weight loss (>10%) in the treated mice during toxicity study. […] The control group (5 mice) was treated with vehicle mixture only. Tumor size and animal body weight were measured every three days after drug treatment. Toxicity was evaluated based on the body weight reduction. At the end of the experiments (tumor size of the control >2000 mm^3), animals were euthanized with carbon dioxide.
Tumors were harvested and instantly stored at −80°C. Frozen cryostat sections were fixed with ice-cold methanol for 10 min. After washing with PBS, endogenous peroxidase was blocked using 3% hydrogen peroxide in TBS for 5 min. Immunostaining process was carried out according to the user's manual of the ABC Peroxidase Staining Kit (Pierce Biotechnology, Rockford, IL). Briefly, the tissues were incubated with a protein-blocking solution for 20 min, and subsequently stained with an anti-phosphorylated Histone H3 (Ser10) polyclonal antibody for 1 hour at room temperature. Then, the samples were incubated with the ABC reagent for 30 min, and subsequently incubated with the metal enhanced DAB substrate. The sections were counterstained with hematoxylin.

The next series has as its system NTUB1 cells. The experiment in a line: Clonogenic assay, NTUB1. It is filed as cell-based, Human. The note with it: Homo sapiens; NTUB1, bladder, MDR1 negative (parental); read-out: IC50, anti-proliferative activity. As to the method:
as §1, §2

The test system of series [3] is KB cells. The experiment in a line: Clonogenic assay, KB. The series is classed as cell-based, Human. The note with it: Homo sapiens, cervical, p53 wild-type, MDR1 negative (parental), read-out: IC50, anti-proliferative activity. The method, then:
as §1, §2

The next series concerns NTU0.017 cells. Briefly: Clonogenic assay, NTU0.017. The series is classed as cell-based, Human. To be noted: for IC50: Homo sapiens, NTU0.017, paclitaxol resistant, MDR1 ↑, read-out: IC50, anti-proliferative activity. As to the method: as §1, §2
The subject of another series is HCT116 cancer cells. Briefly: Western blot of phosphor-Aurora kinases and phosphor-Histone H3 in HCT116 cells. The series is classed as cell-based. As to the method:
Cells were lysed with ice-cold lysis buffer (10 mM Tris, 1 mM EDTA, 1 mM DTT, 60 mM KCl, 0.5% NP-40 and protease inhibitors). […] The resolved proteins were electrophoretically transferred to PVDF membranes (Amersham Life Science, Amersham, U.K.) for Western blot analysis. The membranes were blocked with 5% non-fat milk at room temperature for two hours, washed twice with TBST (1% Tween) and then incubated with either anti-phosphorylated Aurora-A/-B/-C kinase antibody (#2914S, Cell Signaling Technology, Danvers, MA), anti-Aurora-A and -B kinase antibody (#ab1287 and #ab2254, Abcam, Cambridge, MA), anti-phosphorylated Histone H3 antibody (#9701, Cell Signaling Technology, Danvers, MA), anti-Histone H3 antibody (#9715, Cell Signaling Technology, Danvers, MA), anti-Cyclin B1 antibody or anti-Actin antibody (#sc-245 and #sc-130065, Santa Cruz Biotechnology, Santa Cruz, CA) overnight at 4°C. Membranes were washed twice with TBST then subsequently incubated with a horseradish peroxidase-conjugated secondary antibody (Santa Cruz Biotechnology, Santa Cruz, CA) for 1 hour at room temperature. Immunoreactivity was detected by Enhanced Chemiluminescence (Amersham International, Buckingham, U.K.) and autoradiography. Experiments were repeated independently at least two times.
For orientation: A western blot detects proteins with antibodies after separation by electrophoresis.

As a reminder, the IC50 is the midpoint of a concentration-inhibition curve.

In the case of `CN(C)Cc1ccccc1NC(=O)Nc1ccc(CCNc2ncnc3oc(-c4ccccc4)c(Cl)c23)cc1` [BPR1K653], the IC50 with IM9 cells worked out at 0.004 ± 0.002 µM; in the series with KB-VIN10 cells, 0.014 ± 0.004 µM; in the series with NTUB1 cells, 0.008 ± 0.004 µM; in the series with KB cells [3] it was 0.012 ± 0.004 µM; in the series on NTU0.017 cells, 0.01 ± 0.004 µM. In addition, the “Fold difference as compare to the IC50 in the respective parental cells” value in the series with KB-VIN10 cells (KB-VIN10 vs KB) and with NTU0.017 cells (NTU0.017 vs NTUB1) was 1 fold throughout. Moreover, the “apoptosis: phosphatidylserine translocation, caspase-3/-7 activity, DNA fragmentation” value with KB cells [1] is “induced the caspase-3/-7 activity and DNA fragmentation”. The “phosphor-Histone H3 positive cells present in tumor tissues” value in series [2] (15 mg/kg i.p., 24 h after second administration, control 60%) came to 10%. In addition, the “loss of body weight after treatment” value in series [2] (15 mg/kg i.p., 5 days/week for 2 weeks, vs control group) was “less than 10%”. Further, in series [2] (15 mg/kg i.p., 12 days post-treatment, control 7%), the “apoptotic cells present in the tumor tissue (TUNEL)” value was 55%. In addition, the “decrease in tumor volume” value in series [2] (5 days/week for 2 weeks) is listed as approximately 73%. The “phosphor-Aurora-A, -B and -C kinase” value in the series with HCT116 cancer cells was “concentration-dependent decrease”. Also, in the series on HCT116 cancer cells, the “phosphor-Histone H3 (Ser10)” value was “concentration-dependent decrease”.

For the compound `Cc1cc(Nc2cc(N3CCN(C)CC3)nc(Sc3ccc(NC(=O)C4CC4)cc3)n2)[nH]n1` [VX680], the IC50 in the series on IM9 cells turned out to be 0.031 ± 0.016 µM; in the series with KB-VIN10 cells, 1.4 ± 0.14 µM; in the series with KB cells [3], 0.085 ± 0.031 µM; in the series with NTU0.017 cells it was 6.77 ± 1.08 µM. For the same compound, in the series with KB cells [1], the “apoptosis: phosphatidylserine translocation, caspase-3/-7 activity, DNA fragmentation” value was “only induced the translocation of the phosphatidylserine molecule, caspase-3/-7 activity and DNA fragmentation in KB cells”. For the same compound, the “decrease in tumor volume” value in series [2] (5 days/week for 2 weeks) was approximately 68%. In the series with HCT116 cancer cells, the “phosphor-Aurora-A, -B and -C kinase” value is recorded as “reduced in a concentration-dependent manner”. In addition, in the series with HCT116 cancer cells, the “phosphor-Histone H3 (Ser10)” value is on record as “reduced the amount of phosphor-Histone H3 (Ser10)”.
